Experimental data published in US10988477B2 (Merck Patent GmbH, priority 2018, dated 2021).
Read-outs that look alike come from different tables or passages of the source.

Assays:
GCN2 kinase = GCN2 kinase (Homo sapiens, UniProt Q9P2K8); experiment: GCN2 enzyme inhibition assay (Transcreener ADP2 fluorescence polarization); format: biochemical; details: 280 μM ATP
Procedure, shortened: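 Run at 25 °C in 25 mM Tris-HCl pH 7.5, 50 mM NaCl, 10 mM MgCl2, 1 mM DTT with 4 nM GCN2, 280 μM ATP and 200 μM (RS)7 peptide; compound (0–8 μM final) preincubated 10 min, reaction 1 h. ADP read by antibody/tracer FP; IC50 and Ki(app) from tight-binding fit.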

[1] = biological target: intracellular GCN2 (phosphorylation of the GCN2 substrate eIF2α) (Homo sapiens, UniProt Q9P2K8); experiment: GCN2 cellular inhibition assay (AlphaScreen SureFire P-eIF2α Ser51, borrelidin-treated U2OS cells); format: cell-based
Procedure, shortened: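 Phospho-eIF2α (Ser51) in lysates was quantified by AlphaScreen SureFire after a 1 h, 37 °C treatment of U2OS cells with 10 μM borrelidin and compound at 4-fold dilutions starting from 40 μM final. Inhibition expressed in percent against wells stimulated by borrelidin alone.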

[2] = compounds of Formula II, 4 nM GCN2 kinase
[3] = compounds of Formula II, biomarker assay, phosphorylated eIF2α Ser51 in borrelidin-treated U2OS cells
[4] = Enzyme activity for compounds of Formula IV, Ki(app), 25° C.
[5] = compounds of Formula IV, biomarker assay, phosphorylated eIF2α Ser51 in borrelidin-treated U2OS cells

GCN2 kinase, sequence (Q9P2K8 whole entry): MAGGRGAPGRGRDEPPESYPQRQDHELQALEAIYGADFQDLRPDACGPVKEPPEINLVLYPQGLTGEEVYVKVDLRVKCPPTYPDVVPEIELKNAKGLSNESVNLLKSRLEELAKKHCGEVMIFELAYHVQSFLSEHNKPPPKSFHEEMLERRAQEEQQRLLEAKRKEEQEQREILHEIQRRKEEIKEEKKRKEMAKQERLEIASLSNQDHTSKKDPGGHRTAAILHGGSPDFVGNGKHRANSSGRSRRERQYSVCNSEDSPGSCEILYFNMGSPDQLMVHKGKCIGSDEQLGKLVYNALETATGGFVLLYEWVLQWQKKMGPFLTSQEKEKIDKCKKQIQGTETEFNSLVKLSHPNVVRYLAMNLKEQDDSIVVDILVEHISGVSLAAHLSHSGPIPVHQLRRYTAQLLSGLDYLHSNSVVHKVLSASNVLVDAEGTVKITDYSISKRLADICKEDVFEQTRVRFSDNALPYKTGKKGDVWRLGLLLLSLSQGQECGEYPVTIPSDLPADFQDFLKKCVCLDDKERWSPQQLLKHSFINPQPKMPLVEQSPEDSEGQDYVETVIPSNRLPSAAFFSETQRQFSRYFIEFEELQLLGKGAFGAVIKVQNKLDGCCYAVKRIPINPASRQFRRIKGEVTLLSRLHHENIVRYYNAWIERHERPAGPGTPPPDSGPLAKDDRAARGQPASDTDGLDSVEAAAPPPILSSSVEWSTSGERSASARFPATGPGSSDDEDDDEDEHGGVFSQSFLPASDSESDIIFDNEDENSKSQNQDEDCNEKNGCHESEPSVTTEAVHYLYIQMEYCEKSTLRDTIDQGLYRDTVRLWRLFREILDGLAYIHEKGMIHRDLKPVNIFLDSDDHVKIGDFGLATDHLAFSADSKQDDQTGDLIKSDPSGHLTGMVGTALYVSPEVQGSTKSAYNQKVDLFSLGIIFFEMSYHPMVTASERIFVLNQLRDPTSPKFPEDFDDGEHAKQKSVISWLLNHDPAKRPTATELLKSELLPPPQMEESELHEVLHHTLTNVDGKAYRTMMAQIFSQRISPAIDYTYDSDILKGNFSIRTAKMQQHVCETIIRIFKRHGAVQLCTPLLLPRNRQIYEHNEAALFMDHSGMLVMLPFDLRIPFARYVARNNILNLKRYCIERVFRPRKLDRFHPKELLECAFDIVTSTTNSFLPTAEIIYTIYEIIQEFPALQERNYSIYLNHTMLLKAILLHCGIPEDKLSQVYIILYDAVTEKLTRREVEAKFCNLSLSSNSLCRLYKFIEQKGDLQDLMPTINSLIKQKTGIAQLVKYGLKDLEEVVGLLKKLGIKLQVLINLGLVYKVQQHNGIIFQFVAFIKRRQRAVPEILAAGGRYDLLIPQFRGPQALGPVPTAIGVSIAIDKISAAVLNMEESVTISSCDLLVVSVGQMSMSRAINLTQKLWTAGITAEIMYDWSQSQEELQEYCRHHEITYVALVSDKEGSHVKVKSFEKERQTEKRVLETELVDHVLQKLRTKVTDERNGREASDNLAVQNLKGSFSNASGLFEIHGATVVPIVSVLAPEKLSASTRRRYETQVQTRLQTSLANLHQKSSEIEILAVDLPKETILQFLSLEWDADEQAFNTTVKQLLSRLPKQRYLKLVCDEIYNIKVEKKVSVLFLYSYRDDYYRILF
intracellular GCN2 (phosphorylation of the GCN2 substrate eIF2α), sequence (Q9P2K8 whole entry): as above

Row | Ki (GCN2 kinase; [2]) | IC50 [1, 3] | SMILES | further results
1 | 0.01 to 1 µM | 0.5 to 5 µM | CS(=O)(=O)NC[C@@H]1CN(c2cc(-c3cnc4ccc(C(F)F)nn34)ncn2)C[C@@H](C(F)(F)F)O1 [II-307, N-(((2S,6S)-4-(6-(6-(Difluoromethyl)imidazo[1,2-b]pyridazin-3-yl)pyrimidin-4-yl)-6-(trifluoromethyl)morpholin-2-yl)methyl)methanesulfonamide] | 
2 | 0.01 to 1 µM | 0.5 to 5 µM | Cc1ncc(-c2cnc3ccc(C(F)F)nn23)cc1N1CCC12CCN(S(C)(=O)=O)CC2 [II-44, 6-(Difluoromethyl)-3-(6-methyl-5-(7-(methylsulfonyl)-1,7-diazaspiro[3.5]nonan-1-yl)pyridin-3-yl)imidazo[1,2-b]pyridazine] | 
3 | 0.01 to 1 µM | 0.5 to 5 µM | O=C1CCC2(CCN(c3cc(-c4cnc5ccc(C(F)F)nn45)ncn3)CC2)CN1 [II-211, 9-(6-(6-(Difluoromethyl)imidazo[1,2-b]pyridazin-3-yl)pyrimidin-4-yl)-2,9-diazaspiro[5.5]undecan-3-one] | 
4 | < 0.01 µM | < 0.5 µM | CC1C(CNS(C)(=O)=O)C(C)(O)CCN1c1cc(-c2cnc3ccc(C(F)F)nn23)ncn1 (centres unmarked) [II-366, N-((1-(6-(6-(Difluoromethyl)imidazo[1,2-b]pyridazin-3-yl)pyrimidin-4-yl)-4-hydroxy-2,4-dimethylpiperidin-3-yl)methyl)methanesulfonamide] | 
5 | 0.01 to 1 µM | 0.5 to 5 µM | CS(=O)(=O)NCCC1CCN(c2cc(-c3cnc4ccc(C(F)F)nn34)ncn2)C1 (centres unmarked) [II-17, N-(2-(1-(6-(6-(Difluoromethyl)imidazo[1,2-b]pyridazin-3-yl)pyrimidin-4-yl)pyrrolidin-3-yl)ethyl)methanesulfonamide] | 
6 | 0.01 to 1 µM | > 5 µM | FC(F)c1ccc2ncc(-c3cc(N4CCOC(Cn5cnnc5)C4)ncn3)n2n1 (centres unmarked) [II-29, 2-((4H-1,2,4-Triazol-4-yl)methyl)-4-(6-(6-(difluoromethyl)imidazo[1,2-b]pyridazin-3-yl)pyrimidin-4-yl)morpholine] | 
7 |  |  | CC(=O)N1CCN(c2ccnc(-c3cnc4cnc(Cl)cn34)n2)CC1 [IV-35, 1-(4-(2-(6-Chloroimidazo[1,2-a]pyrazin-3-yl)pyrimidin-4-yl)piperazin-1-yl)ethan-1-one] | Ki (GCN2 kinase; [4]): 0.1 to 1 µM; IC50 [1, 5]: > 5 µM
8 | < 0.01 µM | < 0.5 µM | CC1CN(c2cc(-c3cnc4ccc(C(F)F)nn34)ncn2)C(C)C(CNS(C)(=O)=O)=C1F (centres unmarked) [II-491, N-((1-(6-(6-(Difluoromethyl)imidazo[1,2-b]pyridazin-3-yl)pyrimidin-4-yl)-4-fluoro-2,5-dimethyl-1,2,5,6-tetrahydropyridin-3-yl)methyl)methanesulfonamide] | 
9 | < 0.01 µM | < 0.5 µM | CN1CC2(C1)CN(c1cc(-c3cnc4ccc(C(F)F)nn34)cc(N3CCCC(CNS(C)(=O)=O)C3)n1)C2 (centres unmarked) [II-72, N-((1-(4-(6-(Difluoromethyl)imidazo[1,2-b]pyridazin-3-yl)-6-(6-methyl-2,6-diazaspiro[3.3]heptan-2-yl)pyridin-2-yl)piperidin-3-yl)methyl)methanesulfonamide] | 
10 | < 0.01 µM | 0.5 to 5 µM | CS(=O)(=O)NCC1CCCN(c2cc(-c3cnc4ccc(C(F)F)nn34)cc(F)n2)C1 (centres unmarked) [II-122, N-((1-(4-(6-(Difluoromethyl)imidazo[1,2-b]pyridazin-3-yl)-6-fluoropyridin-2-yl)piperidin-3-yl)methyl)methanesulfonamide] | 
11 | 0.01 to 1 µM | > 5 µM | O=C(O)[C@H]1CCCN(c2cc(-c3cnc4ccc(C(F)(F)F)nn34)ncn2)C1 [II-504, (S)-1-(6-(6-(Trifluoromethyl)imidazo[1,2-b]pyridazin-3-yl)pyrimidin-4-yl)piperidine-3-carboxylic acid] | 
12 | 0.01 to 1 µM | > 5 µM | CS(=O)(=O)CC1CCCN(c2cc(-c3cnc4ccc(C(F)(F)F)nn34)ccn2)C1 (centres unmarked) [II-227, 3-(2-(3-((Methylsulfonyl)methyl)piperidin-1-yl)pyridin-4-yl)-6-(trifluoromethyl)imidazo[1,2-b]pyridazine] | 
13 |  |  | Cc1n[nH]cc1[C@@H]1C[C@H](O)CN(c2ccnc(-c3cnc4cnc(C(F)(F)F)cn34)n2)C1 [IV-777, (3S,5S)-5-(3-methyl-1H-pyrazol-4-yl)-1-(2-(6-(trifluoromethyl)imidazo[1,2-a]pyrazin-3-yl)pyrimidin-4-yl)piperidin-3-ol] | IC50 (GCN2 kinase; compounds of Formula IV, 4 nM GCN2 kinase): 0.01 to 1 µM; IC50 [1, 5]: 0.5 to 5 µM
14 | 0.01 to 1 µM | 0.5 to 5 µM | CS(=O)(=O)NC[C@@H]1CCCN(c2cc(-c3cnc4ccc(C(F)F)nn34)ccn2)C1 [II-155, (R)—N-((1-(4-(6-(Difluoromethyl)imidazo[1,2-b]pyridazin-3-yl)pyridin-2-yl)piperidin-3-yl)methyl)methanesulfonamide] | 
15 |  |  | OC1(c2cn[nH]c2)CCCN(c2ccnc(-c3cnc4cnc(C(F)(F)F)cn34)n2)C1 (centres unmarked) [IV-386, 3-(1H-Pyrazol-4-yl)-1-(2-(6-(trifluoromethyl)imidazo[1,2-a]pyrazin-3-yl)pyrimidin-4-yl)piperidin-3-ol] | Ki (GCN2 kinase; [4]): 0.01 to 0.1 µM; IC50 [1, 5]: 0.5 to 5 µM
16 |  |  | O=C1CCN(c2cc(-c3cnn4ccc(C(F)(F)F)nc34)ncn2)CCN1 [III-3, 1-[6-[5-(Trifluoromethyl)pyrazolo[1,5-a]pyrimidin-3-yl]pyrimidin-4-yl]-1,4-diazepan-5-one] | Ki (GCN2 kinase; compounds of Formula III, 4 nM GCN2 kinase): 0.01 to 1 µM; IC50 ([1]; compounds of Formula III, U2OS cells, 10 μM borrelidin, 1 h, read-out: GCN2 Biomarker (IC50)): > 5 µM
17 | 0.01 to 1 µM | 0.5 to 5 µM | CS(=O)(=O)N1CCN2CCN(c3cc(-c4cnc5ccc(C(F)F)nn45)ccn3)CC2C1 (centres unmarked) [II-37, 2-(4-(6-(Difluoromethyl)imidazo[1,2-b]pyridazin-3-yl)pyridin-2-yl)-8-(methylsulfonyl)octahydro-1H-pyrazino[1,2-a]pyrazine] | 
18 | 0.01 to 1 µM | 0.5 to 5 µM | CC1C(CNS(C)(=O)=O)C(F)(F)C(C)CN1c1cc(-c2cnc3ccc(C(F)F)nn23)ncn1 (single isomer, unassigned) [II-470, N-((1-(6-(6-(Difluoromethyl)imidazo[1,2-b]pyridazin-3-yl)pyrimidin-4-yl)-4,4-difluoro-2,5-dimethylpiperidin-3-yl)methyl)methanesulfonamide] | 
19 |  |  | CC1CN(c2ccnc(-c3cnc4cnc(Cl)cn34)n2)CC(c2cn[nH]c2)N1 (single isomer, unassigned) [IV-214, 6-Chloro-3-(4-(3-methyl-5-(1H-pyrazol-4-yl)piperazin-1-yl)pyrimidin-2-yl)imidazo[1,2-a]pyrazine] | Ki (GCN2 kinase; [4]): < 0.01 µM; IC50 [1, 5]: < 0.5 µM
20 | < 0.01 µM | < 0.5 µM | CN(C)C1CN(c2cc(-c3cnc4ccc(C(F)F)nn34)ncn2)CC(CNS(C)(=O)=O)C1(F)F (centres unmarked) [II-259, N-((1-(6-(6-(Difluoromethyl)imidazo[1,2-b]pyridazin-3-yl)pyrimidin-4-yl)-5-(dimethylamino)-4,4-difluoropiperidin-3-yl)methyl)methanesulfonamide] | 
21 | < 0.01 µM | < 0.5 µM | C[C@@H]1C[C@H](NS(C)(=O)=O)CN(c2cc(-c3cnc4ccc(C(F)F)nn34)ncn2)C1 [II-449, N-((3S,5R)-1-(6-(6-(Difluoromethyl)imidazo[1,2-b]pyridazin-3-yl)pyrimidin-4-yl)-5-methylpiperidin-3-yl)methanesulfonamide] | 
22 | 0.01 to 1 µM | 0.5 to 5 µM | CC(NS(C)(=O)=O)C1CN(c2cc(-c3cnc4ccc(C(F)F)nn34)ncn2)CCO1 (centres unmarked) [II-159, N-(1-(4-(6-(6-(Difluoromethyl)imidazo[1,2-b]pyridazin-3-yl)pyrimidin-4-yl)morpholin-2-yl)ethyl)methanesulfonamide] | 
23 |  |  | FC(F)c1cn2c(-c3nccc(N4CCCC(c5nn[nH]n5)C4)n3)cnc2cn1 (centres unmarked) [IV-51, 3-(4-(3-(2H-Tetrazol-5-yl)piperidin-1-yl)pyrimidin-2-yl)-6-(difluoromethyl)imidazo[1,2-a]pyrazine] | Ki (GCN2 kinase; [4]): 0.1 to 1 µM; IC50 [1, 5]: > 5 µM
24 | < 0.01 µM | < 0.5 µM | CC1CN(c2ccnc(-c3cnc4ccc(C(F)F)nn34)c2)CC(CNS(C)(=O)=O)O1 (centres unmarked) [II-94, N-((4-(2-(6-(Difluoromethyl)imidazo[1,2-b]pyridazin-3-yl)pyridin-4-yl)-6-methylmorpholin-2-yl)methyl)methanesulfonamide] | 
25 |  |  | N#Cc1cn2c(-c3cccc(-c4cccc5[nH]ccc45)n3)cnc2cn1 [IV-234, 3-(6-(1H-Indol-4-yl)pyridin-2-yl)imidazo[1,2-a]pyrazine-6-carbonitrile] | Ki (GCN2 kinase; [4]): 0.01 to 0.1 µM; IC50 [1, 5]: > 5 µM
26 |  |  | Brc1cn2c(-c3nccc(N4CCCC(c5cn[nH]c5)C4)n3)cnc2cn1 (single isomer, unassigned) [IV-361, 3-(4-(3-(1H-Pyrazol-4-yl)piperidin-1-yl)pyrimidin-2-yl)-6-bromoimidazo[1,2-a]pyrazine] | Ki (GCN2 kinase; [4]): < 0.01 µM; IC50 [1, 5]: < 0.5 µM
27 | < 0.01 µM | < 0.5 µM | CC1CN(c2cc(-c3cnc4ccc(C(F)F)nn34)ncn2)CC(CNS(C)(=O)=O)C12OCCO2 (centres unmarked) [II-527, N-((8-(6-(6-(Difluoromethyl)imidazo[1,2-b]pyridazin-3-yl)pyrimidin-4-yl)-10-methyl-1,4-dioxa-8-azaspiro[4.5]decan-6-yl)methyl)methanesulfonamide] | 
28 | 0.01 to 1 µM | > 5 µM | FC(F)c1ccc2ncc(-c3cc(N4CCC5C(C4)C5(F)F)ncn3)n2n1 (centres unmarked) [II-274, 3-(6-(7,7-Difluoro-3-azabicyclo[4.1.0]heptan-3-yl)pyrimidin-4-yl)-6-(difluoromethyl)imidazo[1,2-b]pyridazine] | 
